Test results published in patent US8674061B2, “Multiligand constructs” (priority 2008, dated 2014).

Legend:
Assay type in all cases: binding
Conditions in all cases: relative to 6′SLN = 1, KD based on concentration of sialic acid residues, averaged
[1] = test system: influenza virus B/Nib/48/90M
[2] = test system: influenza virus A/Nib/26/90M (H3N2)
[3] = test system: influenza virus A/Nib/23/89M-MA (H1N1)

Neu5Acα2-6Galβ1-4GlcNAcβ-O— [6′SLN, reference compound]
1: Relative inhibitory activity of tetraligand constructs [1] | Relative inhibitory activity of triligand constructs [1] | Relative inhibitory activity of tetraligand constructs [2] | Relative inhibitory activity of triligand constructs [2] | Relative inhibitory activity of tetraligand constructs [3] | Relative inhibitory activity of triligand constructs [3]
